Laboratory results reported in patent US8957108B2, “Use of 5,6-dimethylxanthenone-4-acetic acid as an antiviral agent” (University of Maryland, Baltimore, priority 2006, dated 2015).

Experiments:
[1] = test system: vesicular stomatitis virus (VSV); format: cell-based, strain Indiana; details: RAW 264.7 macrophages pretreated 6 h with 100 μg/ml; highest exposure MOI=10.0
Ft LVS = details: DMXAA alone (100 μg/ml), over a 24 hr period
[2] = test system: Francisella tularensis LVS; format: cell-based; details: Ft LVS-infected macrophages
[3] = IFN-β-deficient cells, DMXAA 3 h vs unstimulated wild-type cells

## Cc1ccc2c(=O)c3cccc(CC(=O)O)c3oc2c1C [DMXAA, 5,6-dimethylxanthenone-4-acetic acid]
[1]
  VSV infection and CPE: completely prevents VSV infection and CPE
IFN-β−/− macrophages
  CYP1A2 Fold Change: IFNβ−/−: 3.9 fold
  CYP1B1 Fold Change: IFNβ−/−: 5.9 fold
IFN-β−/− macrophages; [3]
  2310043N10RIK Fold Change: IFNβ−/−: 2.2 fold
  5830484A20RIK Fold Change: IFNβ−/−: 4.0 fold
  ABCB1 Fold Change: IFNβ−/−: 7.1 fold
  ABL1 Fold Change: IFNβ−/−: 1.5 fold
  ABLIM1 Fold Change: IFNβ−/−: 1.4 fold
  ACVR1B Fold Change: IFNβ−/−: 2.3 fold
  ADRB2 Fold Change: IFNβ−/−: 1.7 fold
  AFTIPHILIN Fold Change: IFNβ−/−: 1.2 fold
  AKAP12 Fold Change: IFNβ−/−: 1.5 fold
  AMPD3 Fold Change: IFNβ−/−: 2.7 fold
  AP2A2 Fold Change: IFNβ−/−: 8.8 fold
  APBB1IP Fold Change: IFNβ−/−: 1.8 fold
  APOBEC3F Fold Change: IFNβ−/−: 1.4 fold
  ARHGEF3 Fold Change: IFNβ−/−: 2.1 fold
  ARID3A Fold Change: IFNβ−/−: 2.5 fold
  ARL4C Fold Change: IFNβ−/−: 5.5 fold
  ASF1A Fold Change: IFNβ−/−: 2.1 fold
  ATRX Fold Change: IFNβ−/−: 2.6 fold
  B3GAT3 Fold Change: IFNβ−/−: 1.6 fold
  BACE1 Fold Change: IFNβ−/−: 3.7 fold
  BAMBI Fold Change: IFNβ−/−: 1.5 fold
  BCL2 Fold Change: IFNβ−/−: 1.4 fold
  BCL2L1 Fold Change: IFNβ−/−: 2.3 fold
  BHLHB2 Fold Change: IFNβ−/−: 1.3 fold
  BID Fold Change: IFNβ−/−: 2.9 fold
  C8ORF4 Fold Change: IFNβ−/−: 4.1 fold
  C9ORF26 Fold Change: IFNβ−/−: 4.4 fold
  CCL2 Fold Change: IFNβ−/−: 5.8 fold
  CCL3 Fold Change: IFNβ−/−: 1.4 fold
  CCL4 Fold Change: IFNβ−/−: 8.1 fold
  CCL5 Fold Change: IFNβ−/−: 3.7 fold
  CCL7 Fold Change: IFNβ−/−: 2.9 fold
  CCL13 Fold Change: IFNβ−/−: 5.8 fold
  CCND2 Fold Change: IFNβ−/−: 2.0 fold
  CCNE1 Fold Change: IFNβ−/−: 2.9 fold
  CCNF Fold Change: IFNβ−/−: 2.4 fold
  CCRN4L Fold Change: IFNβ−/−: 1.6 fold
  CD37 Fold Change: IFNβ−/−: 1.1 fold
  CD40 Fold Change: IFNβ−/−: 1.3 fold
  CD86 Fold Change: IFNβ−/−: 6.0 fold
  CD274 Fold Change: IFNβ−/−: 1.0 fold
  CDC6 Fold Change: IFNβ−/−: 3.2 fold
  CDC7 Fold Change: IFNβ−/−: 1.6 fold
  CDC37L1 Fold Change: IFNβ−/−: 2.2 fold
  CDKN1A Fold Change: IFNβ−/−: 1.1 fold
  CEBPB Fold Change: IFNβ−/−: 1.9 fold
  CITED2 Fold Change: IFNβ−/−: 1.5 fold
  CLCA1 Fold Change: IFNβ−/−: 1.9 fold
  CNR2 Fold Change: IFNβ−/−: 2.3 fold
  CREBBP Fold Change: IFNβ−/−: 6.3 fold
  CXCL10 Fold Change: IFNβ−/−: 21.2 fold
  DAXX Fold Change: IFNβ−/−: 1.6 fold
  DSCR1 Fold Change: IFNβ−/−: 2.7 fold
  FGD6 Fold Change: IFNβ−/−: 2.0 fold
  FGL2 Fold Change: IFNβ−/−: 3.6 fold
  GBP2 Fold Change: IFNβ−/−: 1.6 fold
  GBP4 Fold Change: IFNβ−/−: 4.6 fold
  GBP6 Fold Change: IFNβ−/−: 6.8 fold
  GYPC Fold Change: IFNβ−/−: 4.4 fold
  IFI16 Fold Change: IFNβ−/−: 2.7 fold
  IFI35 Fold Change: IFNβ−/−: 1.1 fold
  IFI203 Fold Change: IFNβ−/−: 3.4 fold
  IFI205 Fold Change: IFNβ−/−: 1.8 fold
  IFIH1 Fold Change: IFNβ−/−: 7.0 fold
  IFIT1 Fold Change: IFNβ−/−: 22.2 fold
  IFIT2 Fold Change: IFNβ−/−: 14.3 fold
  IFIT3 Fold Change: IFNβ−/−: 10.5 fold
  IFNA5 Fold Change: IFNβ−/−: 2.5 fold
  IFNA6 Fold Change: IFNβ−/−: 9.1 fold
  IFNB1 Fold Change: IFNβ−/−: 1.1 fold
  IFNG Fold Change: IFNβ−/−: 59.4 fold
  IGTP Fold Change: IFNβ−/−: 1.2 fold
  IIGP1 Fold Change: IFNβ−/−: 1.2 fold
  IL6 Fold Change: IFNβ−/−: 13.5 fold
  IL12B Fold Change: IFNβ−/−: 1.4 fold
  IL15 Fold Change: IFNβ−/−: 1.7 fold
  IL15RA Fold Change: IFNβ−/−: 3.3 fold
  IRF1 Fold Change: IFNβ−/−: 1.2 fold
  IRF2 Fold Change: IFNβ−/−: 1.2 fold
  IRGM Fold Change: IFNβ−/−: 2.3 fold
  ISG20 Fold Change: IFNβ−/−: 3.4 fold
  KATNA1 Fold Change: IFNβ−/−: 1.5 fold
  LGP2 Fold Change: IFNβ−/−: 2.7 fold
  LHX2 Fold Change: IFNβ−/−: 7.8 fold
  LOC129607 Fold Change: IFNβ−/−: 7.8 fold
  MAFK Fold Change: IFNβ−/−: 1.6 fold
  MARCH5 Fold Change: IFNβ−/−: 1.9 fold
  MOV10 Fold Change: IFNβ−/−: 1.2 fold
  MX1 Fold Change: IFNβ−/−: 9.3 fold
  MX2 Fold Change: IFNβ−/−: 1.1 fold
  NMI Fold Change: IFNβ−/−: 1.6 fold
  NP Fold Change: IFNβ−/−: 1.7 fold
  NT5C3 Fold Change: IFNβ−/−: 1.8 fold
  OAS1B Fold Change: IFNβ−/−: 2.1 fold
  OASL Fold Change: IFNβ−/−: 19.7 fold
  P4HA1 Fold Change: IFNβ−/−: 3.4 fold
  P8 Fold Change: IFNβ−/−: 1.3 fold
  PARP9 Fold Change: IFNβ−/−: 1.4 fold
  PELI1 Fold Change: IFNβ−/−: 4.3 fold
  PGF Fold Change: IFNβ−/−: 20.2 fold
  PLAU Fold Change: IFNβ−/−: 2.3 fold
  PPP1R15A Fold Change: IFNβ−/−: 1.6 fold
  PTX3 Fold Change: IFNβ−/−: 1.3 fold
  PVRL2 Fold Change: IFNβ−/−: 3.1 fold
  PVRL4 Fold Change: IFNβ−/−: 4.3 fold
  REL Fold Change: IFNβ−/−: 1.1 fold
  RGC32 Fold Change: IFNβ−/−: 3.0 fold
  RIPK2 Fold Change: IFNβ−/−: 1.3 fold
  RSAD2 Fold Change: IFNβ−/−: 7.8 fold
  SAP30 Fold Change: IFNβ−/−: 1.6 fold
  SAV1 Fold Change: IFNβ−/−: 2.6 fold
  SDC4 Fold Change: IFNβ−/−: 3.3 fold
  SECTM1 Fold Change: IFNβ−/−: 1.2 fold
  SLC7A2 Fold Change: IFNβ−/−: 1.8 fold
  SOAT1 Fold Change: IFNβ−/−: 1.9 fold
  SOCS1 Fold Change: IFNβ−/−: 3.4 fold
  STAT2 Fold Change: IFNβ−/−: 1.7 fold
  TGTP Fold Change: IFNβ−/−: 1.6 fold
  TLK2 Fold Change: IFNβ−/−: 1.4 fold
  TLR3 Fold Change: IFNβ−/−: 1.3 fold
  TMOD3 Fold Change: IFNβ−/−: 2.3 fold
  TNF Fold Change: IFNβ−/−: 1.4 fold
  TNFRSF11B Fold Change: IFNβ−/−: 100.0 fold
  TNFSF9 Fold Change: IFNβ−/−: 1.7 fold
  TOR1AIP1 Fold Change: IFNβ−/−: 1.3 fold
  TPST1 Fold Change: IFNβ−/−: 6.1 fold
  TREX1 Fold Change: IFNβ−/−: 5.2 fold
  TRIM21 Fold Change: IFNβ−/−: 2.6 fold
  TRIM25 Fold Change: IFNβ−/−: 2.3 fold
  TRIM34 Fold Change: IFNβ−/−: 1.9 fold
  USP18 Fold Change: IFNβ−/−: 1.0 fold
  VCAM1 Fold Change: IFNβ−/−: 1.6 fold
  ZBP1 Fold Change: IFNβ−/−: 4.2 fold
  ZNF313 Fold Change: IFNβ−/−: 1.5 fold
Ft LVS
  effect on Ft LVS replication: no effect
[2]
  time to reduce a bacterial burden compared with rIFN-β: took longer
[2]; 100 μg/ml, within 24 hr
  reduction of bacterial burden: 10 fold
